Measurements as given in paper PMC4050313, “Panaxadiol and Panaxatriol Derivatives as Anti-Hepatitis B Virus Inhibitors” (Natural Products and Bioprospecting, 2014).

Assays:
HepG 2.2.15 cells = experiment: Cytotoxicity, modified MTT method; type: cell-based; conditions: 50 % cytotoxicity concentration in HepG 2.2.15 cells; means of two independent experiments
Procedure: (§1) Based on our previous description, inhibitory activity on HBV (HBsAg, HBeAg and HBV DNA) was evaluated. […] Cytotoxicity was assayed with a modified 3-(4,5-dimethylthiazole-2-yl)-2,5-diphenyltetrazolium bromide (MTT) method (Gibco Invitrogen, Carlsbad, CA, USA). The anti-HBV antigen secretion activities were determined by the enzyme linked immunosorbent assay (ELISA; Autobio Diagnostics Co., Ltd, China). A real-time PCR assay was applied to detect the inhibitory activity on HBV DNA replication.

HBV DNA replication = experiment: Inhibition of HBV DNA replication, real-time PCR, HepG 2.2.15 cells; type: cell-based, Hepatitis B virus; conditions: for IC50: HepG 2.2.15 cells, means of two independent experiments; for growth of inhibition on HBV DNA replication: relative to inactive compound 8
Procedure: as §1

HBsAg secretion = experiment: microbe, parasite or virus in culture; type: cell-based, Hepatitis B virus; conditions: for IC50: HepG 2.2.15 cells, means of two independent experiments, read-out: HBsAg IC50; for growth of inhibition on HBsAg secretion: relative to inactive compound 8
Procedure: as §1

HBeAg secretion = experiment: microbe, parasite or virus in culture; type: cell-based, Hepatitis B virus; conditions: HepG 2.2.15 cells; means of two independent experiments; read-out: HBeAg IC50
Procedure: as §1

SMILES	CC50 (HepG 2.2.15 cells) [µM]	IC50 (HBV DNA replication) [µM]	IC50 (HBsAg secretion) [µM]	IC50 (HBeAg secretion) [µM]	growth of inhibition on HBV DNA replication (HBV DNA replication) [folds]	growth of inhibition on HBsAg secretion (HBsAg secretion) [folds]
CC(=O)OC1CCC2(C)C(CCC3(C)C2CC(O)C2C(C4(C)CCCC(C)(C)O4)CCC23C)C1(C)C (stereo not drawn) [Compound 1, 3-O-Acetly-panaxadiol]	> 2060					
CC1(C)CCCC(C)(C2CCC3(C)C2C(O)CC2C4(C)CCC(OC(=O)C5CCCC5)C(C)(C)C4CCC23C)O1 (stereo not drawn) [Compound 2, 3-O-Cyclopentanecarbonyl panaxadiol]	> 2140	515	1250	> 2140		
CC1(C)CCCC(C)(C2CCC3(C)C2C(O)CC2C4(C)CCC(OC(=O)c5ccco5)C(C)(C)C4CCC23C)O1 (stereo not drawn) [Compound 3, 3-O-(2′-Furoyl) panaxadiol]	1180	50.3	834	1180		
CC1(C)CCCC(C)(C2CCC3(C)C2C(O)CC2C4(C)CCC(OC(=O)c5cccs5)C(C)(C)C4CCC23C)O1 (stereo not drawn) [Compound 4, 3-O-(2′-Thenoyl) panaxadiol]	> 1910	16.5	30.8	18.2		
Cc1ccsc1C(=O)OC1CCC2(C)C(CCC3(C)C2CC(O)C2C(C4(C)CCCC(C)(C)O4)CCC23C)C1(C)C (stereo not drawn) [Compound 5, 3-O-(3′-Methyl)-thenoyl panaxadiol]	> 2020	> 505	> 2020	> 2020		
CC1(C)CCC[C@](C)([C@H]2CC[C@]3(C)[C@@H]2[C@H](O)C[C@@H]2[C@@]4(C)CC[C@H](OC(=O)c5sccc5Cl)C(C)(C)[C@@H]4CC[C@]23C)O1 [Compound 6, 3-O-(3′-Chloro)-thenoyl panaxadiol]	> 1640	43.2		280		
CC1(C)CCCC(C)(C2CCC3(C)C2C(O)CC2C4(C)CCC(OC(=O)c5cc6ccccc6s5)C(C)(C)C4CCC23C)O1 (stereo not drawn) [Compound 7, 3-O-Benzothiophene-2-carboxyl panaxadiol]	> 1690					
CC1(C)CCC[C@](C)([C@H]2CC[C@]3(C)[C@@H]2[C@H](O)C[C@@H]2[C@@]4(C)CC[C@H](OC(=O)c5ccccc5)C(C)(C)[C@@H]4CC[C@]23C)O1 [Compound 8, 3-O-Benzoyl panaxadiol]	> 2000	501	> 2000	> 2000		
CC1(C)CCCC(C)(C2CCC3(C)C2C(O)CC2C4(C)CCC(OC(=O)c5ccccc5O)C(C)(C)C4CCC23C)O1 (stereo not drawn) [Compound 9, 3-O-Salicyloyl panaxadiol]	44.4	9.02	43.3		60	60
CC1(C)CCC[C@](C)([C@H]2CC[C@]3(C)[C@@H]2[C@H](O)C[C@@H]2[C@@]4(C)CC[C@H](OC(=O)c5cc(O)c(O)c(O)c5)C(C)(C)[C@@H]4CC[C@]23C)O1 [Compound 10, 3-O-Galloyl panaxadiol]	25.9	7.27	45.6	> 1440	60	60
CC1(C)CCCC(C)(C2CCC3(C)C2C(O)CC2C4(C)CCC(OC(=O)c5cccnc5)C(C)(C)C4CCC23C)O1 (stereo not drawn) [Compound 11, 3-O-Nicotinoyl panaxadiol]	1150	117	1150	1150		
CCCCC(=O)O[C@H]1CC[C@]2(C)[C@H]3C[C@@H](O)[C@@H]4[C@@H]([C@@]5(C)CCCC(C)(C)O5)CC[C@@]4(C)[C@]3(C)CC[C@H]2C1(C)C [Compound 12, 3-O-Valeryl panaxadiol]	> 1580	> 1580				
CCOCC(=O)O[C@H]1CC[C@]2(C)[C@H]3C[C@@H](O)[C@@H]4[C@@H]([C@@]5(C)CCCC(C)(C)O5)CC[C@@]4(C)[C@]3(C)CC[C@H]2C1(C)C [Compound 13, 3-O-2′-Ethyoxyl-acetyl panaxadiol]	1490	> 591	589	> 2360		
CC1(C)CCCC(C)(C2CCC3(C)C2C(O)CC2C4(C)CCC(OC(=O)CCC(=O)O)C(C)(C)C4CCC23C)O1 (stereo not drawn) [Compound 14, 3-O-Succinyl panaxadiol]	179	16.7	199	169		
CC1(C)CCCC(C)(C2CCC3(C)C2C(O)CC2C4(C)CCC(OC(=O)CCCC(=O)O)C(C)(C)C4CCC23C)O1 (stereo not drawn) [Compound 15, 3-O-Glutaryl panaxadiol]	86.6	28.2	53.8	101		
CC1(C)CCCC(C)(C2CCC3(C)C2C(O)CC2C4(C)CCC(OC(=O)COCC(=O)O)C(C)(C)C4CCC23C)O1 (stereo not drawn) [Compound 16, 3-O-Diglycolyl panaxadiol]	> 1700	51.9	> 1700	901		
CC(CC(=O)O)CC(=O)O[C@H]1CC[C@]2(C)[C@H]3C[C@@H](O)[C@@H]4[C@@H]([C@@]5(C)CCCC(C)(C)O5)CC[C@@]4(C)[C@]3(C)CC[C@H]2C1(C)C (stereo partly drawn) [Compound 17, 3-O-(3′-Methyl) diglutaryl panaxadiol]	934	86.3				
CC(C)(CC(=O)O)CC(=O)O[C@H]1CC[C@]2(C)[C@H]3C[C@@H](O)[C@@H]4[C@@H]([C@@]5(C)CCCC(C)(C)O5)CC[C@@]4(C)[C@]3(C)CC[C@H]2C1(C)C [Compound 18, 3-O-(3′,3′-Dimethyl) glutaryl panaxadiol]	314	124	933			
CC1(C)CCCC(C)(C2CCC3(C)C2C(O)CC2C4(C)CCC(OC(=O)CC5(CC(=O)O)CCCC5)C(C)(C)C4CCC23C)O1 (stereo not drawn) [Compound 19, 3-O-(3′,3′-tetramethylene)diglutaryl panaxadiol]	> 1730	> 432	> 1730	> 1730		
CC(=O)OC1CC2(C)C(CC(O)C3C(C4(C)CCCC(C)(C)O4)CCC32C)C2(C)CCC(OC(C)=O)C(C)(C)C12 (stereo not drawn) [Compound 20, 3,6-O-Diacetyl-panaxatriol]	> 2100	545	> 2100	> 2100		
CC1(C)CCCC(C)(C2CCC3(C)C2C(O)CC2C4(C)CCC(OC(=O)CCC(=O)O)C(C)(C)C4C(OC(=O)CCC(=O)O)CC23C)O1 (stereo not drawn) [Compound 21, 3,6-O-Disuccinyl panaxatriol]	> 1940	> 485	> 1940	> 1940		
CC1(C)CCCC(C)(C2CCC3(C)C2C(O)CC2C4(C)CCC(OC(=O)c5ccco5)C(C)(C)C4C(OC(=O)c4ccco4)CC23C)O1 (stereo not drawn) [Compound 22, 3,6-O-Di(2′-furoyl)-panaxatriol]	530	> 320	> 1280	> 1280		
CC1(C)CCCC(C)(C2CCC3(C)C2C(O)CC2C4(C)CCC(OC(=O)c5cccs5)C(C)(C)C4C(OC(=O)c4cccs4)CC23C)O1 (stereo not drawn) [Compound 23, 3,6-O-Di(2′-thenoyl)-panaxatriol]	> 2090	> 2090				
CC1(C)CCCC(C)(C2CCC3(C)C2C(O)CC2C4(C)CCC(OC(=O)c5cccnc5)C(C)(C)C4C(OC(=O)c4cccnc4)CC23C)O1 (stereo not drawn) [Compound 24, 3,6-O-Dinicotinoyl-panaxatriol]	1650	412	1650	1070		
COCC(=O)OC1CC2(C)C(CC(O)C3C(C4(C)CCCC(C)(C)O4)CCC32C)C2(C)CCC(OC(=O)COC)C(C)(C)C12 (stereo not drawn) [Compound 25, 3,6-O-Di(2′-methoxyl)acetoxyl-panaxatriol]	> 1500	> 375	> 1500	974		
CC(=O)OC1CCC2(C)C(CCC3(C)C2CC(=O)C2C(C4(C)CCCC(C)(C)O4)CCC23C)C1(C)C [Compound 26, (20R)-20,25-Epoxy-3-O-acetoyl-dammaran-12-dione]	> 2280					
CC1(C)CCCC(C)(C2CCC3(C)C2C(=O)CC2C4(C)CCC(OC(=O)c5cccs5)C(C)(C)C4CCC23C)O1 [Compound 27, (20R)-20,25-Epoxy-3-O-(2′-thenoyl)-dammaran-12-dione]	> 2160					
CC1(C)CCCC(C)(C2CCC3(C)C2C(=O)CC2C4(C)CCC(OC(=O)CCC(=O)O)C(C)(C)C4CCC23C)O1 [Compound 28, (20R)-20,25-Epoxy-3-O-succinyl-dammaran-12-dione]	> 1940	> 485	> 1940	> 1940		
O=C(O)c1cccs1 [TA, thiophenezoic acid, reference compound]		1770				
